Results on two compounds are retold here after patent US20080299118A1, “FXR Agonists for the Treatment of Malignancies” (Wyeth, priority 2007, published 2008).

Data set [1] concerns RECK gene. Kind of data set: RECK expression in mouse primary hepatocytes, real-time PCR. The format is cell-based. Particulars: 1 μM; for RECK expression, fold induction relative to t=0: normalized to GAPDH, p<0.01. The protocol:
Mouse primary hepatocytes were plated at 1.5×10^5 cells per well in 24-well plates and cultured in Williams E medium supplemented with 15 mM HEPES pH 7.4, 1% insulin-transferrin-selenium supplement, 1 nM dexamethasone, 50 U/ml penicillin, and 50 μg/ml streptomycin. Cells were treated with DMSO vehicle or with the FXR agonists, Compound A or Compound B ((E)-3-(2-chloro-4-((3-(2,6-dichlorophenyl)-5-isopropylisoxazol-4-yl)methoxy)styryl)benzoic acid). Cells were harvested at various times after treatment and RNA was prepared for real-time PCR analysis.
RECK expression levels were normalized to GAPDH and the mean level of RECK expression at t=0 was defined as 1.0.
In general terms: Real-time PCR tracks product formation cycle by cycle.

In data set [2] the test system is RECK gene. Description: RECK expression in human hepatocytes, real-time PCR. The format is cell-based. The note with it: 1 μM, 24 hours of treatment, p<0.05. The protocol:
Confluent monolayers of human hepatocytes in 24-well plates, cultured in InVitroGRO HI medium, were treated with DMSO vehicle or Compound A. After 24 hours of treatment, the cells were harvested and RNA was prepared for real time PCR analysis.
RECK expression was normalized to GAPDH, and the mean level of RECK expression in DMSO treated cells was defined as 1.0. The data are presented as the mean ± SEM from triplicate determinations.

In data set [3] the test system is RECK gene. Description: Kinetics of induction of RECK expression in liver after a single dose, wildtype and FXR deficient mice. It is filed as in vivo, mouse. The note with it: wildtype mice, single dose 30 mg/kg by oral gavage. The protocol:
Wildtype or FXR deficient male and female mice were administered a single dose of vehicle or 30 mg/kg Compound A by oral gavage. Mice were euthanized at various times after treatment and real-time PCR analysis of liver RNA was performed.
RECK expression levels were normalized to GAPDH, and the mean level of RECK expression at t=0 was defined as 1.0. […] The kinetics of induction of RECK expression by Compound A are consistent with direct induction of RECK expression by FXR activation.

For data set [4], the system named is RECK gene. Kind of data set: RECK expression in liver of male LDLR deficient mice, real-time PCR of liver RNA. It is filed as in vivo, mouse. The note with it: Western diet, 30 mg/kg by gavage once a day for 7 days, liver RNA 4 h after final treatment, p<0.01. The method, then: Male LDLR deficient mice, fed a Western diet, were administered vehicle or 30 mg/kg Compound A [isopropyl 3-(3,4-difluorobenzoyl)-1,1-dimethyl-1,2,3,6-tetrahydroazepino[4,5-b]indole-5-carboxylate] by gavage once a day for 7 days. Four hours after the final treatment, mice were euthanized and real-time PCR analysis of liver RNA was performed.
RECK expression levels were normalized to GAPDH and the mean level of RECK expression in vehicle treated mice was defined as 1.0. Data are presented as the mean ± standard error of the mean (SEM). 6 mice were tested in each group.

For data set [5], the system named is RECK gene. Description: RECK expression in liver of wildtype, FXR deficient and SHP deficient mice, real-time PCR of liver RNA. It is filed as in vivo, mouse. Particulars: 30 mg/kg by gavage once a day for 7 days. The method, then: Wildtype or FXR deficient mice on the C57B1/6 background and wildtype or SHP deficient mice on the 129 background were fed a standard chow diet. Mice were administered vehicle or 30 mg/kg Compound A by gavage once a day for 7 days. Four hours after the final treatment, mice were euthanized and real-time PCR analysis of liver RNA was performed.
RECK expression levels were normalized to GAPDH and the mean level of RECK expression in vehicle treated female C57B1/6 mice was defined as 1.0. Data are presented as the mean ±SEM. 6 mice were tested in each group. […] (p<0.01). […] (p<0.01).

The structures appear in SMILES notation. A value given as a limit tells only on which side of the number the result lay.

`CC(C)c1onc(-c2c(Cl)cccc2Cl)c1COc1ccc(/C=C/c2cccc(C(=O)O)c2)c(Cl)c1` [Compound B, (E)-3-(2-chloro-4-((3-(2,6-dichlorophenyl)-5-isopropylisoxazol-4-yl)methoxy)styryl)benzoic acid, reference compound]: in the data set on RECK gene [1], the “Time of peak RECK expression following treatment” value is 4 h and the “RECK expression, fold induction relative to t=0” value was “induced RECK expression”.
As for `CC(C)OC(=O)C1=CN(C(=O)c2ccc(F)c(F)c2)CC(C)(C)c2c1[nH]c1ccccc21` [Compound A, isopropyl 3-(3,4-difluorobenzoyl)-1,1-dimethyl-1,2,3,6-tetrahydroazepino[4,5-b]indole-5-carboxylate], the “RECK expression (normalized to GAPDH, DMSO = 1.0)” value in the data set with RECK gene [2] is given as “induced expression of the RECK gene”. Besides, the “RECK expression, fold induction relative to t=0” value in the data set on RECK gene [3] (liver RNA) and in the data set with RECK gene [1] was “induced RECK expression” throughout. In addition, the “Time after administration at which induction of RECK expression was observed” value with RECK gene [3] (expression continued to increase at later time points, p<0.01) is ≤ 2 h. In addition, the “RECK expression (normalized to GAPDH, vehicle = 1.0)” value in the data set with RECK gene [4] is “RECK expression is induced”. Also, the “RECK expression (normalized to GAPDH)” value is recorded as “failed to induce RECK expression” with RECK gene [5] (FXR deficient mice (C57B1/6 background)); “induction of RECK expression was observed” in the data set on RECK gene [5] (SHP deficient mice (129 background), p=0.02 in males, p<0.01 in females); “induced expression of the RECK gene” in the data set on RECK gene [5] (male and female wildtype C57B1/6 mice, p<0.01). For the same compound, the “Induction of RECK expression, female compared to male” value with RECK gene [5] (wildtype 129 mice, p<0.01) was “enhanced compared to male 129 mice”; in the data set on RECK gene [5] (wildtype C57B1/6 mice), “Enhanced induction of RECK expression was observed in female compared to male”. Further, in the data set on RECK gene [1], the “Time of peak RECK expression following treatment” value turned out to be 4 h.
